Results taken from patent US8362031B2, “Lonidamine analogues and treatment of polycystic kidney disease” (University of Kansas, priority 2004, dated 2013).
Entries after “also recorded” stand apart in the source; their conditions may differ.

Experiments:
Male Long Evans rats = assay: In vivo antispermatogenic testing in Long Evans rats; conditions: for Mortality (25 mg/kg) / Response 25 mg/kg: 25 mg/kg single i.p. injection; for Response 25 mg/kg / Response 200 mg/kg: animals responding out of animals surviving, five days following injection; for Mortality (200 mg/kg) / Response 200 mg/kg: 200 mg/kg single i.p. injection; for Staging 25 mg/kg / Staging 200 mg/kg: seminiferous tubule staging; for Staging 25 mg/kg: 25 mg/kg i.p.; for Staging 200 mg/kg: 200 mg/kg i.p.
[1] = test system: Salmonella Typhimurium TA 100; assay: Ames test for mutagenicity (plate assay, colony count); conditions: 48 hours at 37° C.; for Ames test (+)S9 0.1 mg/pl. / Ames test (+)S9 1 mg/pl. / Ames test (+)S9 10 mg/pl.: (+)S9 mix; for Ames test (−)S9 0.1 mg/pl. / Ames test (−)S9 1 mg/pl. / Ames test (−)S9 10 mg/pl.: (−)S9 mix
rats = assay: Toxicology: organs sectioned and examined after dosing; assay type: in vivo; conditions: two animals examined, findings per animal
Experimental: In at least two of the animals in each group, the pancreas, right kidney and part of the liver, heart, spleen, and lung were removed and evaluated for toxic effects.
The toxicology of animals receiving some of the compounds of the present invention IP and/or oral was examined. At the time of sacrifice samples of liver, pancreas, heart, lung, spleen and kidney were removed, visually inspected, and immersion fixed in Bouin's solution for a minimum of 48 hours. All organs were then sectioned and examined for evidence of necrosis, inflammation, hemorrhage, and possible tumors. The major veins in each tissue were also examined for distention, especially in the liver and pancreas, and any other abnormalities are compared to known histopathological states. In addition to the above, the heart was examined for evidence of fibrosis in the muscular walls, and to compare the thickness of the ventricular walls. The pancreas was examined mainly for calcium deposits, while the lung was checked for signs of any exudates or hemorrhage, especially in the alveolar spaces. Finally, the kidney was examined mainly for microscopic hemorrhages, tubular necrosis or alterations in the glomeruli in the cortex.
In this example, the effects of RC-MC-30 were compared with those of lonidamine in sexually mature rats. As discussed above, each of the rats (8 total) received a single injection and were sacrificed five days after injection and examined.

Compound	Mortality (25 mg/kg) (Male Long Evans rats)	Response 25 mg/kg (Male Long Evans rats)	Mortality (200 mg/kg) (Male Long Evans rats)	Response 200 mg/kg (Male Long Evans rats)	Staging 25 mg/kg (Male Long Evans rats)	Staging 200 mg/kg (Male Long Evans rats)	Ames test (+)S9 0.1 mg/pl. [1]	Ames test (+)S9 1 mg/pl. [1]	Ames test (+)S9 10 mg/pl. [1]	Ames test (−)S9 0.1 mg/pl. [1]	Ames test (−)S9 1 mg/pl. [1]	Ames test (−)S9 10 mg/pl. [1]	Toxicology: liver, lung, pancreas, spleen, heart and kidney (histology) (rats; 25 mg/kg)	Toxicology: liver, lung, pancreas, spleen, heart and kidney (histology) (rats; 200 mg/kg)	Toxicology: liver, lung, pancreas, spleen, heart and kidney (histology) (rats; 200 mg/kg, listed as JSW-1-162)
NNC(=O)c1nn(Cc2ccc(Cl)cc2Cl)c2ccccc12 [AF2364, reference compound]	0/5	3/5	0/5	5/5	3.5	2.1									
O=C(O)/C=C/c1nn(Cc2ccc(Cl)cc2Cl)c2ccccc12 [AF2785, reference compound]	0/5	1/5	2/6	3/4	5.5	3.4									
O=C(O)c1nn(Cc2ccc(Cl)cc2Cl)c2cc(Cl)ccc12 [DD-MC-I, 6-chloro-1-(2,4-dichlorobenzyl)-1H-indazole-3-carboxylic acid]	0/5	0/5	0/5	2/5			Pass	Pass	Pass	Pass	Pass	Pass			
COC(=O)c1nn(Cc2ccc(Cl)cc2Cl)c2cccnc12 [JWS-1-110]	0/5	0/5	0/5	0/5			Pass	Pass	Pass	Pass	Pass	Pass	The spleen had distended veins and necrosis in the white pulp; also recorded: The liver had distended portal veins with surrounding small patches of hepatic necrosis; also recorded: The lung contained scattered hemorrhagic areas around the alveoli and terminal bronchioles; also recorded: the spleen had distended veins and diminished amounts of white pulp containing necrotic cells	The liver showed distended portal veins with scattered, small patches of necrosis; also recorded: The lung contained multiple hemorrhagic areas throughout the alveoli, and terminal and respiratory bronchioles; also recorded: the spleen demonstrated distended veins, and diminished white pulp with necrotic cells; also recorded: The liver had distended veins, with scattered, small patches of necrosis throughout; also recorded: The pancreas had distended veins, but no other noticeable abnormalities	
O=C(O)c1nn(Cc2ccc(Cl)cc2Cl)c2cccnc12 [JWS-1-114, 1-(2,4-dichlorobenzyl)-1H-pyrazolo[4,3-b]pyridine-3-carboxylic acid]	0/5	1/5	0/5	0/5			Pass	Pass	Pass	Pass	Pass	Pass	liver, lung, pancreas, spleen, heart and kidney that appeared within normal limits	The lung had massive pulmonary hemorrhaging around the bronchioles; also recorded: The liver had moderate sized (5-10 cell in diameter) necrotic patches generally in the periportal areas; also recorded: liver, lung, pancreas, spleen, heart and kidney that appeared within normal limits	
O=C(O)c1nn(Cc2ccc(Cl)cc2Cl)c2cc(F)ccc12 [JWS-1-162, 1-(2,4-dichlorobenzyl)-6-fluoro-1H-indazole-3-carboxylic acid]							Pass	Pass	Pass	Pass	Pass	Pass	liver, lung, pancreas, spleen, heart and kidney all appeared within normal limits		The lung had scattered hemorrhagic patches surrounding many of the small bronchioles; also recorded: The lung had moderate regions showing thickening of the alveolar walls, with a clear exudates slightly stained by eosin filling the alveoli
COC(=O)c1nn(Cc2ccc(Cl)cc2Cl)c2ccc(C(F)(F)F)cc12 [JWS-1-254, 1-(2,4-dichlorobenzyl)-5-trifluoromethyl-1H-indazole-3-carboxylic acid methyl ester]	0/5	0/5	0/5	0/5			Pass	Pass	Pass	Pass	Pass	Pass			
COC(=O)c1nn(Cc2ccc(F)cc2F)c2cc(C(F)(F)F)ccc12 [JWS-1-270, 1-(2,4-difluorobenzyl)-6-trifluoromethyl-1H-indazole-3-carboxylic acid methyl ester]	0/5	0/5	0/5	0/5			Pass	Pass	Pass	Pass	Pass	Pass			
NNC(=O)c1nn(Cc2ccc(F)cc2F)c2cc(C(F)(F)F)ccc12 [JWS-1-274, 1-(2,4-difluorobenzyl)-6-trifluoromethyl-1H-indazole-3-carboxylic acid hydrazide]	0/5	0/5	0/5	0/5			Pass	Pass	Pass	Pass	Pass	Pass			
O=C(O)c1nn(Cc2ccc(F)cc2F)c2cc(C(F)(F)F)ccc12 [JWS-1-276, 1-(2,4-difluorobenzyl)-6-trifluoromethyl-1H-indazole-3-carboxylic acid]	0/5	0/5	0/5	0/5			Pass	Pass	Pass	Pass	Pass	Pass			
COC(=O)c1nn(Cc2ccc(F)cc2F)c2cc(Cl)ccc12 [JWS-1-280, 1-(2,4-difluorobenzyl)-6-chloro-1H-indazole-3-carboxylic acid methyl ester]	0/5	0/5	0/5	0/5			Pass	Pass	Pass	Pass	Pass	Pass			
NNC(=O)c1nn(Cc2ccc(Cl)cc2Cl)c2ncccc12 [RC-MC-60, 1-(2,4-dichlorobenzyl)-1H-pyrazolo[3,4-b]pyridine-3-carboxylic acid hydrazide]	0/5	0/5	0/5	0/5			Pass	Pass	Pass	Pass	Pass	Pass			
O=C(O)c1nn(Cc2ccc(Cl)cc2Cl)c2ncccc12 [RC-MC-86, 1-(2,4-dichlorobenzyl)-1H-pyrazolo[3,4-b]pyridine-3-carboxylic acid]	0/5	0/5	0/5	5/5			Pass	Pass	Pass	Pass	Pass	Pass			
NNC(=O)c1nn(Cc2ccc(Cl)cc2Cl)c2cc(C(F)(F)F)ccc12 [RC-MC-101, 1-(2,4-dichlorobenzyl)-6-trifluoromethyl-1H-indazole-3-carboxylic acid hydrazide]	0/5	0/5	0/5	0/5			Pass	Pass	Pass	Pass	Pass	Pass			
